Experimental data: patent publication US20220000852A1, “5-HT2A SEROTONIN RECEPTOR INVERSE AGONISTS OR ANTAGONISTS FOR USE IN REDUCING AMYLOID-BETA PEPTIDES AND ACCUMULATION OF AMYLOID PLAQUES” (ACADIA Pharmaceuticals Inc., priority 2016, published 2022)

Columns and labels:
beta amyloid = details: cited from earlier work; for beta amyloid levels and Plaque Burden: Mouse Model of AD
ISF Aβ [1] = assay: ISF Aβ levels by hippocampal microdialysis and sandwich ELISA in APP/PS1+/− transgenic mice; format: in vivo; details: for ISF levels of Aβ: Example 1
Protocol: Wild-type or APP/PS1+/− transgenic mice at the indicated ages (equal male and female) were implanted with unilateral hippocampal microdialysis probes at stereotaxic coordinates (bregma—3.1 mm, 2.5m lateral to midline, and 1.2 mm below dura at a 12° angle) as described (Cirrito et al. 2003; 2011). These probes contain a 38 kDa MWCO semi-permeable membrane and sample Aβ specifically from within the brain ISF. ISF Aβ was measured every 60-90 minutes for up to 72 hours after probe was inserted into the brain. Throughout each study mice was housed in RaTurn caging systems to provide freedom of movement and ad lib food and water while attached the microdialysis equipment. After probe insertion, animals were allowed to recover for 6 hours in order for the brain to recover and the blood-brain barrier to reform. Microdialysis probe insertion was similar to the procedure described by Cirrito et al. 2003 and 2011. From hours 6-60 after microdialysis probe insertion, ISF Aβ levels were relatively constant which provides the ideal experimental window. After recovery, each mouse had baseline ISF Aβ levels sampled every hour over a 6 hour period followed by administration of either vehicle (saline, pH 6.0 or M DL 100,907. Following drug administration, ISF Aβ was measured every 60-90 minutes for an additional 48 hours. At the end of each experiment ISF Aβ40 was immediately measured by sandwich ELISA. Animals were sacrificed, brains removed, then processed for histological verification of probe placement. FIG. 1A-FIG. 1D discloses the results of Example 1 (MDL 100,907 (M100), a selective 5-HT2A Serotonin Receptor Inverse Agonist on ISF levels of Aβ40 and Aβ42 in wild-type, and in young and aged APP/PS1+/− Transgenic Mice). […] APP/PS1+/− transgenic mice at the indicated ages (equal male and female) were implanted with unilateral hippocampal microdialysis probes at stereotaxic coordinates (bregma—3.1 mm, 2.5m lateral to midline, and 1.2 mm below dura at a 12° angle) as described (Cirrito et al. 2003 and 2011) and ISF Aβ levels measured as described in Example 1. […]

ISF Aβ [2] = assay: ISF Aβ levels by hippocampal microdialysis in wild-type mice; format: in vivo; details: 2.5 to 3 months, Example 3, pimavanserin 1 mg/kg, MDL 100,907 3 mg/kg
Protocol: Wild-type or APP/PS1+/− transgenic mice at the indicated ages (equal male and female) were implanted with unilateral hippocampal microdialysis probes at stereotaxic coordinates (bregma—3.1 mm, 2.5m lateral to midline, and 1.2 mm below dura at a 12° angle) as described (Cirrito et al. 2003; 2011). These probes contain a 38 kDa MWCO semi-permeable membrane and sample Aβ specifically from within the brain ISF. ISF Aβ was measured every 60-90 minutes for up to 72 hours after probe was inserted into the brain. Throughout each study mice was housed in RaTurn caging systems to provide freedom of movement and ad lib food and water while attached the microdialysis equipment. […] After recovery, each mouse had baseline ISF Aβ levels sampled every hour over a 6 hour period followed by administration of either vehicle (saline, pH 6.0 or M DL 100,907. Following drug administration, ISF Aβ was measured every 60-90 minutes for an additional 48 hours. At the end of each experiment ISF Aβ40 was immediately measured by sandwich ELISA. Animals were sacrificed, brains removed, then processed for histological verification of probe placement. FIG. 1A-FIG. 1D discloses the results of Example 1 (MDL 100,907 (M100), a selective 5-HT2A Serotonin Receptor Inverse Agonist on ISF levels of Aβ40 and Aβ42 in wild-type, and in young and aged APP/PS1+/− Transgenic Mice). […]

ISF Aβ [3] = assay: ISF Aβ levels by hippocampal microdialysis in 5-HT2A−/− mice; format: in vivo; details: 5-HT2A KO (5-HT2A−/−) mice; Example 3; pimavanserin 1 mg/kg, MDL 100,907 3 mg/kg
Protocol: Following drug administration, ISF Aβ was measured every 3 hours for an additional 24 hours.

Aβ40 and Aβ42 [4] = assay: Aβ40 and Aβ42 in 5M guanidine hippocampal extracts (ELISA) after chronic treatment of APP/PS1+/− mice; format: in vivo
Description: (§1) Incisions were closed by suture or staple to insure the pumps remained in place. Every 5 weeks pumps were removed and new full pumps implanted in the same manner at a different location on the back to provide continuous drug delivery over the 4 month period. In parallel, age and gender matched cohorts of APP/PS1+/− transgenic mice were sacrificed so that amyloid plaque and Aβ levels at the start of treatment could be compared to mice at the end of treatment. […] At the end of the 4 month treatment period, mice were sacrificed, brains removed, and divided into hemispheres. One hemisphere per mouse was processed for guanidine extraction and biochemical analysis by ELISA of Aβ40 and Aβ42 levels in hippocampus as described in Cirrito et al., 2011, with the 5 Molar Guanidine extracts representing the insoluble fractions of Aβ40 and Aβ42. The insoluble fraction is believed to represent the harmful amyloid plaque deposits that are characteristic of Alzheimer's disease. The other hemisphere was used to perform histological staining and analysis of amyloid plaque growth. Start indicates the age and gender matched cohorts sacrificed at the start of the study. Guan indicates 5 Molar Gaunidine. FIG. 4A) 5M Gaunidine fraction of Aβ40 and Aβ42, all genders. FIG. 4B) 5M Guanidine fraction, male and female.
Male and Female APP/PS1+/− transgenic mice, age 6 months, were implanted with Alzet osmotic minipumps and treated as described in Example 4. At the end of the 4 month treatment period, mice were sacrificed, brains removed, and divided into hemispheres. In parallel, age and gender matched cohorts of APP/PS1+/− transgenic mice were sacrificed so that amyloid plaque and Aβ levels at the start of treatment could be compared to mice at the end of treatment. Start indicates the age and gender matched cohorts sacrificed at the start of the study. Guan indicates 5 Molar Gaunidine. FIG. 6A) 5M Gaunidine fraction of Aβ40 and Aβ42, all genders. FIG. 6B) F) 5M Guanidine fraction of Aβ40 and Aβ42, male and female. […] Example 7.

amyloid plaque = assay: Histological staining of hippocampus for amyloid plaque load after chronic treatment of APP/PS1+/− mice; format: in vivo
Description: as §1, with “female. […]” for “female.”

Aβ40 and Aβ42 [5] = assay: Aβ40 and Aβ42 in CSF (ELISA) after chronic treatment of APP/PS1+/− mice; format: in vivo; details: 6 month old APP/PS1 mice treated for 4 months; Example 8
Description: as §1, with “The other hemisphere was used to perform histological staining and analysis of amyloid plaque growth. Start indicates the age and gender matched cohorts sacrificed at the start of the study. Guan indicates 5 Molar Gaunidine. FIG. 4A) 5M Gaunidine fraction of Aβ40 and Aβ42, all genders. FIG. 4B) 5M Guanidine fraction, male and female.” left out
Male and Female APP/PS1+/− transgenic mice, age 6 months, were implanted with Alzet osmotic minipumps and treated as described in Example 4. At the end of the 4 month treatment period, mice were sacrificed, CSF removed using the method of DeMattos et al., 2002 (see page 230, Materials and Methods), and Aβ40 and Aβ42 levels analyzed by ELISA. […]

CNCCC(Oc1ccc(C(F)(F)F)cc1)c1ccccc1 (centres unmarked) [fluoxetine]
beta amyloid levels and Plaque Burden (beta amyloid): lower beta amyloid levels and Plaque Burden

CN(C)CC(c1ccc(O)cc1)C1(O)CCCCC1 (centres unmarked) [desvenlafaxine]
beta amyloid levels and Plaque Burden (beta amyloid): lower beta amyloid levels and Plaque Burden

COc1cccc([C@H](O)C2CCN(CCc3ccc(F)cc3)CC2)c1OC [M100,907, (R)-(+)-α-(2,3-Dimethoxyphenyl)-1-[2-(4-fluorophenyl)ethyl]-4-piperinemethanol]
ISF levels of Aβ (ISF Aβ [1]; old (12 month old, fully formed amyloid plaques) APP/PS1 mice): robustly lowered levels of Aβ in a dose dependent manner
ISF levels of Aβ (ISF Aβ [1]; young (3 month old, pre-plaque) APP/PS1 mice): robustly lowered levels of Aβ in a dose dependent manner
Brain ISF Aβ levels (ISF Aβ [2]): Normalize Brain ISF Aβ Levels
Aβ-lowering effect on ISF Aβ (ISF Aβ [3]): abolished

NCCc1c[nH]c2ccc(O)cc12 [serotonin]
ISF Aβ40 and Aβ42 levels (beta amyloid; direct infusion into the hippocampus): reduced ISF Aβ40 and Aβ42 levels

CC(C)COc1ccc(CNC(=O)N(Cc2ccc(F)cc2)C2CCN(C)CC2)cc1.O=C(O)C(O)C(O)C(=O)O [pimavanserin, N-(1-methylpiperidin-4-yl)-N-(4-fluorophenylmethyl)-N′-(4-(2-methylpropyloxy)phenylmethyl)carbamide]
ISF Aβ (ISF Aβ [1]; APP/PS1 mice, single bolus doses or continuous infusion, Example 2): robustly lowered ISF Aβ in APP/PS1 mice in a dose dependent manner
Brain ISF Aβ levels (ISF Aβ [2]): Normalize Brain ISF Aβ Levels
Aβ40 (guanidine fraction) in male mice, treated group (age 10 months) compared to start group (age 6 months) (Aβ40 and Aβ42 [4]; male mice, Example 6B): reduction in Aβ40
levels of the guanidine fraction of Aβ40 and Aβ42 in hippocampus, compared to vehicle treated mice (Aβ40 and Aβ42 [4]; treatment from age 4.5 months for 4 months, osmotic minipump 3 mg/kg/day, Example 4): highly significant reduction
levels of Aβ40 and Aβ42 (guanidine fraction), treated group at end compared to 'Start' group (Aβ40 and Aβ42 [4]; treatment from age 4.5 months for 4 months, Example 4): not a significant difference
levels of the guanidine fraction of Aβ40 and Aβ42 in hippocampus, compared to vehicle treated mice (Aβ40 and Aβ42 [4]; treatment from age 6 months for 4 months, osmotic minipump, Example 6): highly significant reduction
levels of Aβ40 and Aβ42 (guanidine fraction), treated group at end compared to 'Start' group (Aβ40 and Aβ42 [4]; treatment from age 6 months for 4 months, Example 6): not a significant difference
amyloid plaque in hippocampus (histological staining), compared to vehicle treated mice (amyloid plaque; treatment from age 4.5 months for 4 months, Example 5): highly significant decreases of amyloid plaque
amyloid plaque in hippocampus (histological staining), compared to vehicle treated mice (amyloid plaque; treatment from age 6 months for 4 months, Example 7): highly significant decreases of amyloid plaque
Aβ in CSF (Aβ40 and Aβ42 [5]): significantly lowered Aβ
